Test results from article PMC6424980, “Distinct G protein-coupled receptor phosphorylation motifs modulate arrestin affinity and activation and global conformation” (Nature Communications, 2019).
Each block holds one molecule with its values, some of them ahead of it. Non-standard residues stand in square brackets, D forms with d. No end group written: not given here. pS = N[C@@H](COP(=O)(O)O)C(=O)O

Tests used:
[1] = molecular target: T1, arrestin-1 (monomerizing mutant F85A, F197A) (Bos taurus, UniProt P08168, F197A/F85A); test: Fluorescence anisotropy binding of fluorescein-labelled peptides to arrestin-1; design: species or system bovine
T1 construct: made in house; host or cells: E. coli NiCo (DE3) cells (New England Biolabs), pET-15b vector
T1 sequence (P08168 whole entry F85A/F197A): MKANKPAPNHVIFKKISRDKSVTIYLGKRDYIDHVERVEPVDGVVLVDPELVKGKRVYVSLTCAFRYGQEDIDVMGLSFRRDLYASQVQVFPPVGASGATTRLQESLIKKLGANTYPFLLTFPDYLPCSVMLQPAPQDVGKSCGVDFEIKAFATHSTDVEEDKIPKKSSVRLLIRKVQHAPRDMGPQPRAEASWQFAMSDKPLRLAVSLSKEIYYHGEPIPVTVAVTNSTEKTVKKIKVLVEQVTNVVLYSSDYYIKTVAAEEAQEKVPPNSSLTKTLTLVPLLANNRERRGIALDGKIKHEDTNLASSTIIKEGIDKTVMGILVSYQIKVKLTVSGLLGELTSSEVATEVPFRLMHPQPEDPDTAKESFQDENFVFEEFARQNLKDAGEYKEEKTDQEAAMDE
Source text: (§1) Synthesized cDNAs of bovine arrestin-1, human arrestin-2 and human arrestin-3 were ordered from Genewiz, amplified by PCR and cloned (Supplementary Information Table 5) into the pET-15b vector (Novagen), using the Gibson Assembly protocol. The constructs contained an N-terminal hexa histidine tag linked by a linker that contained a Tobacco Etch Virus cleavage site (TEV; […]). PCR was used to introduce the monomerizing arrestin-1 mutations (F85A, F197A)[58]. Note that this mutant was employed for fluorescence anisotropy, trypsin digestion, and NMR experiments. Wild-type arrestin-2 and -3 were used for fluorescence anisotropy and trypsin digestion experiments. […] The arrestin-1 in this construct had the wild-type sequence. Note that this construct differs slightly from that previously published[59],[60] and was optimized for purification. We verified the functionality of this fusion construct using the standard centrifugal pull-down assay using phosphorylated rhodopsin in native ROS membranes.
0.1–0.2 mg of lyophilized peptide was dissolved in 50 µl of 50 mM phosphate-buffered saline (PBS) buffer at pH 7.0, and then two molar equivalents of fluorescein-5-maleimide dye stock dissolved in dimethylsulfoxid was added. The reaction was carried out at RT in the dark. After 1 h the reaction was topped up with 1 ml of ice-cold 100% acetone and stored until the next day at −20 °C. The precipitated peptide was centrifuged (13,000 × g) for 10 min. The labeled and precipitated peptide was sedimented, and the supernatant was removed. The peptide was resuspended again in ice-cold acetone, stored for 1 h at −20 °C and centrifuged (13,000 × g) for 10 min. […] The precipitated peptide was dried at RT in the dark. It was dissolved in 50 µl of 20 mM Bis-Tris propane pH 7.0 and 150 mM NaCl and its concentration was determined by absorbance. A molar extinction coefficient of 70,000/M/cm at pH 7.0 was assumed for calculating the concentration of the labeled peptide stock.
An 11-step serial dilution series of arrestin in 20 mM Bis-Tris propane pH 7.0, 150 mM NaCl, 8 mM 2‑mercaptoethanol, 2% (w/w) BSA, 0.02% (v/v) Tween-20 was prepared and transferred to a black high-bottom 384-well plate (Greiner). As control for free peptide, a position with only buffer was included. The peptide was added at a final concentration of 20 nM to each well. The plate was closed by a clear cover and vortexed for 15 s. Afterwards it was centrifuged (800 × g) for 2 min and stored at RT for 20 min. The reading was performed by default settings of PHERAstar plate-reader (BMG Labtech) and excitation‑/emission-wavelengths of 485 nm (12 nm bandpass)/520 nm (30 nm bandpass) were used. The analysis was performed using Origin2016 (Microcal Inc) software by fitting the data to a one-to-one binding model:2 r=R0+△R*P/Kd+P, where r stands for anisotropy, R0 stands for anisotropy of the ligand, ΔR stands for anisotropy of the complex minus anisotropy of the ligand, P stands for the concentration of protein, and Kd stands for the dissociation constant of the ligand.

[2] = system: arrestin-1 mutants I72B and F197NBD with nonphosphorylated light-activated rhodopsin in ROS membranes; test: Ternary complex formation (site-directed fluorescence and centrifugal pull-down); format: biochemical, bovine; conditions: 10 µM rhodopsin in ROS, 1 µM arrestin-1 I72B or F197NBD, 100 µM peptide, pH 7
Source text: Recombinant bovine arrestin-1 cloned into the pET15b vector was expressed and purified as described. The basic construct was a modified wild-type sequence that contained no native cysteines (C63A, C128S and C143A) nor tryptophans (W194F). Single cysteine residues were introduced by PCR at sites 72 or 197 as previously described. The I72C mutant was labeled with monobromobimane (Thermo Fisher) and is referred to as I72B. The F197C mutant was labeled with N,N′-Dimethyl-N-(Iodoacetyl)-N′-(7-Nitrobenz-2-Oxa-1,3-Diazol-4-yl)Ethylenediamine (IANBD amide, Thermo Fisher) and is referred to as F197NBD. Labeling was carried out as previously described[43],[61]. Both labeled mutants were assessed to be functionally similar to wild-type arrestin-1 using the Extra Meta II assay, which determines the ability of arrestin-1 to bind and stabilize the active Meta II form of rhodopsin[64].
Under dim-red light, samples were prepared that contained nonphosphorylated rhodopsin (10 µM) in ROS membranes, 1 µM arrestin-1 I72B or F197NBD, ±100 µM peptide in 50 mM HEPES, 130 mM NaCl, pH 7 (150 or 200 µl sample volume). One hundred microliters of the sample was used for fluorescence measurements, and the remainder was used for the centrifugal pull-down assay (50 µl per assay). Steady-state fluorescence measurements were performed using a SPEX Fluorolog (1680) instrument in front-face mode. Bimane fluorescence was recorded using an excitation wavelength of 400 nm and emission 424–600 nm, and NBD fluorescence was recorded using an excitation wavelength of 500 nm and emission 524–660 (2 nm step size, 0.5 s integration per point). Excitation slits were narrowed to 0.1−0.2 nm to minimize light-activation of rhodopsin, and emission slits were set at 4 nm. Pull-down analysis was performed by centrifuging samples at 16,000 × g for 10 min at 20 °C. Selected samples were light activated (>495 nm) for 15 s prior to centrifugation (appr. 60 s delay time). Following centrifugation, the supernatants were removed, and the pellets were solubilized in loading buffer containing 2% SDS and subjected to SDS PAGE. Bands were visualized using Coomassie Brilliant Blue.

[3] = system: arrestin-2; test: Fluorescence anisotropy binding of fluorescein-labelled peptides to arrestin-2; design: species or system human
Source text: as §1
0.1–0.2 mg of lyophilized peptide was dissolved in 50 µl of 50 mM phosphate-buffered saline (PBS) buffer at pH 7.0, and then two molar equivalents of fluorescein-5-maleimide dye stock dissolved in dimethylsulfoxid was added. The reaction was carried out at RT in the dark. […] It was dissolved in 50 µl of 20 mM Bis-Tris propane pH 7.0 and 150 mM NaCl and its concentration was determined by absorbance. […]

[4] = system: arrestin-1 (F85A, F197A); test: Limited trypsin digestion of arrestin-1 in presence of peptide; format: biochemical, bovine; conditions: arrestin:peptide 1:1.2, 35 °C, SDS PAGE
Source text: as §1
Arrestin (60 µg) was mixed at a 1 to 1.2 molar ratio with peptide and preincubated at RT for 5 min before 1 μl of 0.15 mg/ml trypsin stock was added. The enzymatic digestion was carried out at 35 °C (20 mM Bis-Tris propane pH 7.0, 150 mM NaCl, 10 mM 2‑Mercaptoethanol and 2 mM EDTA). At certain time points (5, 15, 30, 60, 90 min), 5 μl aliquots were quenched with heat incubation in the presence of 20 μl SDS loading buffer (95 °C, 5 min) and then subjected to SDS PAGE. Bands were visualized with InstantBlue (Expedeon).

[5] = molecular target: T2, bovine arrestin-1 with the monomerizing mutations F85A, F197A (bovine, UniProt P08168 2-404, F85A | F197A); test: fluorescence polarisation; fluorescence anisotropy; 20 nM fluorescently labelled peptide, 11-step serial dilution of arrestin; 20 mM Bis-Tris propane pH 7.0, 150 mM NaCl, 8 mM 2-mercaptoethanol, 2% BSA, 0.02% Tween-20; RT; one-to-one binding model; conditions: both partners purified
T2 construct: arrestin-1, bovine, synthesized cDNA in pET-15b; monomerizing mutations F85A, F197A; Used for fluorescence anisotropy, trypsin digestion and NMR (2H,15N,13C-labelled for NMR); residues of the linker may remain after cleavage (surmised); source: E. coli NiCo (DE3), purified (Ni-NTA, TEV, SQ column); not shown: His6, N-terminal, cleaved
T2 sequence (P08168 2-404 F85A/F197A): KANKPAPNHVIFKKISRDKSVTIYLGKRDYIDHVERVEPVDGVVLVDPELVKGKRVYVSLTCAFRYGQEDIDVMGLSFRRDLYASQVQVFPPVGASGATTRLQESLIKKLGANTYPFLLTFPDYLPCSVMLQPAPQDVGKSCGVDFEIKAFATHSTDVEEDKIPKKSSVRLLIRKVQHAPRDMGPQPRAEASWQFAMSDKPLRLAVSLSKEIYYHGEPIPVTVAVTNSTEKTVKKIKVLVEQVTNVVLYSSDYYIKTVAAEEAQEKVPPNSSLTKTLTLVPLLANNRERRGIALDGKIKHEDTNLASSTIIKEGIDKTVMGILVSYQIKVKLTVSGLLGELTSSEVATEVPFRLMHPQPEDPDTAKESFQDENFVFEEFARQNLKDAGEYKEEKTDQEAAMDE

Molecule: CDDEASTTVSKTETSQVAPA [3Pe, tri-phosphorylated rhodopsin C-terminus peptide lacking one or both key sites]
binding to arrestin-1 (in words) [1]: significant loss of affinity
ternary complex formation (arrestin-1, nonphosphorylated rhodopsin, peptide) [2]: very little arrestin binding

Molecule: CDDEASTTVSKTETSQVAPA [3Pf]
binding to arrestin-1 (in words) [1]: significant loss of arrestin-1 affinity
binding to arrestin-2 (in words) [3]: bound well
limited trypsin digest pattern of arrestin-1 (conformational change, C-tail displacement) [4]: notable exception
ternary complex formation (arrestin-1, nonphosphorylated rhodopsin, peptide) [2]: less ternary complex formation

Molecule: CDDEASTTVSKTETSQVAPA [3Pg, tri-phosphorylated rhodopsin C-terminus peptide lacking one key site, containing pT335 and pS338]
binding to arrestin-1 (in words) [1]: significant loss of affinity
ternary complex formation (arrestin-1, nonphosphorylated rhodopsin, peptide) [2]: moderate ternary complex formation

Molecule: CDDEASTTVSKTETSQVAPA [3Ph, tri-phosphorylated rhodopsin C-terminus peptide lacking one or both key sites]
binding to arrestin-1 (in words) [1]: significant loss of affinity
ternary complex formation (arrestin-1, nonphosphorylated rhodopsin, peptide) [2]: very little arrestin binding

Molecule: CDDEASTTVSKTETSQVAPA [3Pi, tri-phosphorylated rhodopsin C-terminus peptide lacking one key site, containing pT335 and pS338]
binding to arrestin-1 (in words) [1]: significant loss of affinity
ternary complex formation (arrestin-1, nonphosphorylated rhodopsin, peptide) [2]: moderate ternary complex formation

Molecule: CDDEASTTVSKTETSQVAPA [3Pj, tri-phosphorylated rhodopsin C-terminus peptide lacking one or both key sites]
binding to arrestin-1 (in words) [1]: significant loss of affinity
ternary complex formation (arrestin-1, nonphosphorylated rhodopsin, peptide) [2]: very little arrestin binding

Molecule: CDDEASTTVSKTETSQVAPA [3Pk, tri-phosphorylated rhodopsin C-terminus peptide lacking one or both key sites]
binding to arrestin-1 (in words) [1]: significant loss of affinity
ternary complex formation (arrestin-1, nonphosphorylated rhodopsin, peptide) [2]: very little arrestin binding

Kd [5]: < 250 µM
Molecule: C(fluorescein‑5‑maleimide)DDEASTTVSKTET[pS]QVAPA (not fully specified (residue 12); also: third phospho-Ser/Thr site not placed) [tri-phosphorylated peptide 3Pc of the bovine rhodopsin C-terminus]

Kd [5]: < 250 µM
Molecule: C(fluorescein‑5‑maleimide)DDEASTTVSKTET[pS]QVAPA (not fully specified (residue 12); also: third phospho-Ser/Thr site not placed) [tri-phosphorylated peptide 3Pd of the bovine rhodopsin C-terminus]

Kd [5]: < 250 µM
B1: phosphopeptide 6P of the bovine rhodopsin C-terminus (peptide)
chain: C(fluorescein‑5‑maleimide)DDEASTTVSKTET[pS]QVAPA
modifications: not fully specified (residue 12); also: four further phospho-Ser/Thr sites not placed

Kd [5]: < 250 µM
Molecule: C(fluorescein‑5‑maleimide)DDEASTTVSKTET[pS]QVAPA (not fully specified (residue 12); also: third phospho-Ser/Thr site not placed) [tri-phosphorylated peptide 3Pa of the bovine rhodopsin C-terminus]

Kd [5]: < 250 µM
B2: phosphopeptide 4P of the bovine rhodopsin C-terminus (peptide)
chain: C(fluorescein‑5‑maleimide)DDEASTTVSKTET[pS]QVAPA
modifications: not fully specified (residue 12); also: two further phospho-Ser/Thr sites not placed

Kd [5]: < 250 µM
Molecule: C(fluorescein‑5‑maleimide)DDEASTTVSKTET[pS]QVAPA (not fully specified (residue 12); also: third phospho-Ser/Thr site not placed) [tri-phosphorylated peptide 3Pb of the bovine rhodopsin C-terminus]
